# Data reported in US10757943B2, “Thidiazuron mixtures and uses thereof” (Valent BioSciences LLC, priority 2017, dated 2020).
# Tests used:
# Type in all cases: in vivo
# Concord grape vines [1] = assay: Bud break and harvest weight of endo-dormant two-year-old Concord grape vines in the greenhouse (Example 4); conditions: thidiazuron ppm and 17-0-0 % as in label, 15-0-0 65,880 ppm; for Fresh Shoot Weight (g)/Plant: new growth at close of study
# Source text: Two-year-old Concord grape vines were purchased commercially. These vines had just lost their leaves and were shipped shortly after they were dug at the nursery. Thus, the vines had not fulfilled their chilling requirement and were considered endo-dormant. The vines were potted individually into one-gallon pots containing ProMix® BX immediately upon receipt and subsequently pruned back to the five proximal buds on the one-year old wood. Within two hours of pruning, treatment solutions were applied using a foam paint brush to the remaining one-year old wood, including the cut end from pruning. Two treatments, water and hydrogen cyanimide, which acted as negative and positive controls, respectively, were included in all studies.
# Treatment solutions were made fresh in water and contained 1% (v/v) non-ionic surfactant. In all cases, two treatment solutions were applied to the plants. Where a single component was used for a treatment, the first application solution was water containing surfactant; in the cases where combination treatments were made to the same plant, the first treatment solution was allowed to dry prior to applying the second.
# The treated plants were kept in a conventional greenhouse under supplemental lighting. Greenhouse conditions were 65:60° F. Day:Night temperature with a 16:8 hour photoperiod. Relief from dormancy was assessed every two days during the course of the study. Dormancy was considered relieved upon the emergence of a green bud. Both the number of ‘broken buds’ per plant and the date of relief of plants from dormancy were assessed. At the close of the study, new growth was removed from each of the treated plants and weighed.
# Concord grape vines [2] = assay: Bud break and shoot growth of potted dormant Concord grape vines in the greenhouse (Example 1); conditions: for % bud break (vines with at least one bud break): hydrogen cyanamide 10,000 ppm, 17-0-0 197,100 ppm, 15-0-0 239,060 ppm, ACC 1,000 ppm; for % bud break (vines with at least one bud break) / 50% Bud Break to Harvest / Initial to 50% Bud Break / 25% Bud Break (DAT) / 50% Bud Break (DAT): thidiazuron 300 ppm unless label states other; for Dry Weight (g)/25% Bud Break to Harvest (d): combined shoot dry weight at 49 DAT normalised by days from 25% bud break to harvest; for Dry Weight (g)/50% Bud Break to Harvest (d): combined shoot dry weight at 49 DAT normalised by days from 50% bud break to harvest; for Fresh Weight (g)/50% Bud Break to Harvest (d): combined shoot fresh weight at 49 DAT normalised by days from 50% bud break to harvest; for 50% Bud Break to Harvest: harvest at day 49; for Initial to 50% Bud Break: synchrony of bud break; for 25% Bud Break (DAT): time to 25% bud break; for 50% Bud Break (DAT): time to 50% bud break
# Source text: An aqueous 50% hydrogen cyanamide solution (Sigma-Aldrich, St. Louis, Mo. USA) was used as the source of hydrogen cyanamide. The commercial product, Dormex® contains 50% hydrogen cyanamide (w/v) in water.
# Erger® was used as the source of 15-0-0 fertilizer. (Erger is a registered trademark of Valagro S.P.A., Italy and is available from Helena Chemical Company, Collierville, Tenn., USA). Erger® contains 15% total nitrogen as 3.1% ammoniacal nitrogen, 5.8% nitrate nitrogen and 6.1% urea nitrogen and 3.3% calcium derived from ammonium nitrate, calcium nitrate and urea. As used herein, the term “15-0-0 fertilizer” refers to the Erger® formulation above and all formulations described in International PCT application publication WO/2001/037653A2 by Valagro S.P.A., Italy, which is incorporated, herein, in its entirety.
# CAN-17 was used as the source of 17-0-0 fertilizer. CAN-17 contains 17% total nitrogen as 4.6% ammonium nitrogen and […] nitrate nitrogen and 1.3% urea nitrogen and 8.8% calcium derived from ammonium nitrate and calcium nitrate. CAN-17 is available from J.R. Simplot Company (Boise, Id., USA).
# To assess the ability of mixtures of the invention to promote and synchronize bud break these mixtures were applied to Concord grape vines and examined for bud break (initiation of growth) and subsequent shoot development. Specifically, 1 year old dormant bare rooted Concord grape vines were planted in pots containing Pro-Mix® BX potting soil (Pro-Mix is a registered trademark of and available from Premier Horticulture Ltd.) and pruned to 5 nodes on a single shoot. Aqueous solutions of thidiazuron, hydrogen cyanamide, 15-0-0 fertilizer, 17-0-0 fertilizer and 1-aminocyclopropane-1-carboxylic acid (“ACC”), and mixtures thereof were each applied individually or sequentially or co-applied to the first-year wood of separate Concord grape vines. Plants were grown in the greenhouse for 49 days and evaluated for percent of vines showing bud break, or relief from dormancy, periodically between 7 days and the conclusion of the experiment. […] At 49 days after treatment (DAT), the plants were sacrificed and measured for total number of flower clusters, total new shoot length, longest new shoot, combined new shoot fresh weight and combined new shoot dry weight. New shoot growth is the growth arising from the dormant buds not including the woody growth that was planted and gave rise to the new growth.
# Synergy is calculated by the Abbott method: %Cexp=A+B−(AB/100), where % Cexp is the expected efficacy and in which A and B are the speed of bud break or shoot length or shoot weight given by the single active ingredients. If the ratio between the experimentally observed efficacy of the mixture Cobs and the expected efficacy of the mixture is greater than 1, synergistic interactions are present in the mixture” (Gisi, Synergistic Interaction of Fungicides in Mixtures, The American Phytopathological Society, 86:11, 1273-1279,1996).
# [3] = system: Red Flame seedless grape vines; assay: Bud break and shoot length of field-grown Red Flame seedless grape vines (Example 2); conditions: for Broken Buds per plant (Average Buds Broken per Spur): 31 days after treatment; for % Broken Buds / Total Shoot Length: 48 days after treatment
# Protocol: To assess the ability of mixtures of the invention to promote and synchronize bud break these mixtures were applied to field-grown Red Flame seedless grape vines and examined for bud break (initiation of growth) and subsequent shoot development. Thidiazuron, hydrogen cyanamide, 17-0-0 fertilizer, and mixtures thereof were each applied individually or sequentially (co-applied) to the separate spurs of Red Flame seedless grape vines. Plants were evaluated for bud break at 31 days after treatment, for percent bud break and total new shoot length at 48 days after treatment. Results of these evaluations can be seen below in Tables 4 and 5.
# [4] = 49 days post treatment, thidiazuron ppm as in label, other concentrations as in Table 1, listed as Thidiazuron (300)
# [5] = 49 days post treatment, thidiazuron ppm as in label, other concentrations as in Table 1, listed as Thidiazuron (1000)
# [6] = other concentrations as in Table 1, listed as Thidiazuron (1000)
# [7] = other concentrations as in Table 1
# [8] = other concentrations as in Table 1, listed as 1,000 ppm thidiazuron
# [9] = hydrogen cyanamide 10,000 ppm, thidiazuron 300 ppm, 17-0-0 197,100 ppm
compound,measurement,setting,value
"O=C(Nc1ccccc1)Nc1cnns1 [Thidiazuron, 1-Phenyl-3-(1,2,3-thiadiazol-5-yl)urea]",Fresh Shoot Weight (g)/Plant,Concord grape vines [1]; listed as Thidiazuron (100),15.53 g
same,Fresh Shoot Weight (g)/Plant,Concord grape vines [1]; listed as Thidiazuron (300),13.15 g
same,Fresh Shoot Weight (g)/Plant,Concord grape vines [1]; listed as Thidiazuron (1000),22.45 g
same,50% Bud Break (DAT),Concord grape vines [1]; listed as Thidiazuron (100),33 DAT
same,100% Bud Break (DAT),Concord grape vines [1]; listed as Thidiazuron (100),44 DAT
same,Initial to 50% Bud Break,Concord grape vines [1]; listed as Thidiazuron (100),7
same,Number of Buds Broken/Plant,Concord grape vines [1]; listed as Thidiazuron (100),2
same,50% Bud Break (DAT),Concord grape vines [1]; listed as Thidiazuron (300),28 DAT
same,100% Bud Break (DAT),Concord grape vines [1]; listed as Thidiazuron (300),48 DAT
same,Initial to 50% Bud Break,Concord grape vines [1]; listed as Thidiazuron (300),14
same,Number of Buds Broken/Plant,Concord grape vines [1]; listed as Thidiazuron (300),2.125
same,50% Bud Break (DAT),Concord grape vines [1]; listed as Thidiazuron (1000),21 DAT
same,100% Bud Break (DAT),Concord grape vines [1]; listed as Thidiazuron (1000),37 DAT
same,Initial to 50% Bud Break,Concord grape vines [1]; listed as Thidiazuron (1000),7
same,Number of Buds Broken/Plant,Concord grape vines [1]; listed as Thidiazuron (1000),4.5
same,% bud break (vines with at least one bud break),Concord grape vines [2]; 7 DAT,0%
same,% bud break (vines with at least one bud break),Concord grape vines [2]; 10 DAT,0.0%
same,% bud break (vines with at least one bud break),"Concord grape vines [2]; 10 DAT, listed as Thidiazuron (1,000)",44.4%
same,% bud break (vines with at least one bud break),Concord grape vines [2]; 13 DAT,0.0%
same,% bud break (vines with at least one bud break),"Concord grape vines [2]; 13 DAT, listed as Thidiazuron (1,000)",77.8%
same,% bud break (vines with at least one bud break),Concord grape vines [2]; 15 DAT,0.0%
same,% bud break (vines with at least one bud break),"Concord grape vines [2]; 15 DAT, listed as Thidiazuron (1,000)",88.9%
same,% bud break (vines with at least one bud break),Concord grape vines [2]; 17 DAT,11.1%
same,% bud break (vines with at least one bud break),"Concord grape vines [2]; 17 DAT, listed as Thidiazuron (1,000)",88.9%
same,% bud break (vines with at least one bud break),Concord grape vines [2]; 20 DAT,11.1%
same,% bud break (vines with at least one bud break),"Concord grape vines [2]; 20 DAT, listed as Thidiazuron (1,000)",100.0%
same,% bud break (vines with at least one bud break),Concord grape vines [2]; 22 DAT,22.2%
same,% bud break (vines with at least one bud break),"Concord grape vines [2]; 22 DAT, listed as Thidiazuron (1,000)",100.0%
same,% bud break (vines with at least one bud break),Concord grape vines [2]; 24 DAT,33.3%
same,% bud break (vines with at least one bud break),"Concord grape vines [2]; 24 DAT, listed as Thidiazuron (1,000)",100.0%
same,% bud break (vines with at least one bud break),Concord grape vines [2]; 27 DAT,33.3%
same,% bud break (vines with at least one bud break),"Concord grape vines [2]; 27 DAT, listed as Thidiazuron (1,000 ppm)",100.0%
same,% bud break (vines with at least one bud break),Concord grape vines [2]; 29 DAT,33.3%
same,% bud break (vines with at least one bud break),"Concord grape vines [2]; 29 DAT, listed as Thidiazuron (1,000 ppm)",100.0%
same,% bud break (vines with at least one bud break),Concord grape vines [2]; 31 DAT,33.3%
same,% bud break (vines with at least one bud break),"Concord grape vines [2]; 31 DAT, listed as Thidiazuron (1,000 ppm)",100.0%
same,% bud break (vines with at least one bud break),Concord grape vines [2]; 34 DAT,33.3%
same,% bud break (vines with at least one bud break),"Concord grape vines [2]; 34 DAT, listed as Thidiazuron (1,000 ppm)",100.0%
same,% bud break (vines with at least one bud break),Concord grape vines [2]; 36 DAT,44.4%
same,% bud break (vines with at least one bud break),"Concord grape vines [2]; 36 DAT, listed as Thidiazuron (1,000 ppm)",100.0%
same,% bud break (vines with at least one bud break),Concord grape vines [2]; 38 DAT,55.6%
same,% bud break (vines with at least one bud break),"Concord grape vines [2]; 38 DAT, listed as Thidiazuron (1,000 ppm)",100.0%
same,% bud break (vines with at least one bud break),Concord grape vines [2]; 41 DAT,55.6%
same,% bud break (vines with at least one bud break),"Concord grape vines [2]; 41 DAT, listed as Thidiazuron (1,000 ppm)",100.0%
same,% bud break (vines with at least one bud break),Concord grape vines [2]; 43 DAT,66.7%
same,% bud break (vines with at least one bud break),"Concord grape vines [2]; 43 DAT, listed as Thidiazuron (1,000 ppm)",100.0%
same,% bud break (vines with at least one bud break),Concord grape vines [2]; 49 DAT,77.8%
same,% bud break (vines with at least one bud break),"Concord grape vines [2]; 49 DAT, listed as Thidiazuron (1,000 ppm)",100.0%
same,Total # of Flower Clusters,"Concord grape vines [2]; 49 days post treatment, thidiazuron ppm as in label, other concentrations as in Table 1",0.1
same,Combined Shoot Dry Weight,Concord grape vines [2]; [4],1.5 g
same,Combined Shoot Fresh Weight,Concord grape vines [2]; [4],8.2 g
same,Longest Shoot Length,Concord grape vines [2]; [4],20.1 cm
same,Total Shoot Length,Concord grape vines [2]; [4],28.3 cm
same,Combined Shoot Dry Weight,Concord grape vines [2]; [5],6.9 g
same,Combined Shoot Fresh Weight,Concord grape vines [2]; [5],31.8 g
same,Longest Shoot Length,Concord grape vines [2]; [5],68.3 cm
same,Total Shoot Length,Concord grape vines [2]; [5],88.8 cm
same,Dry Weight (g)/25% Bud Break to Harvest (d),Concord grape vines [2]; listed as Thidiazuron (300),0.06 g/day
same,Dry Weight (g)/25% Bud Break to Harvest (d),Concord grape vines [2]; listed as Thidiazuron (1000),0.17 g/day
same,Dry Weight (g)/50% Bud Break to Harvest (d),Concord grape vines [2]; listed as Thidiazuron (300),0.13 g/day
same,Dry Weight (g)/50% Bud Break to Harvest (d),Concord grape vines [2]; listed as Thidiazuron (1000),0.18 g/day
same,Fresh Weight (g)/50% Bud Break to Harvest (d),Concord grape vines [2]; listed as Thidiazuron (300),0.68 g/day
same,Fresh Weight (g)/50% Bud Break to Harvest (d),Concord grape vines [2]; listed as Thidiazuron (1000),0.84 g/day
same,50% Bud Break to Harvest,"Concord grape vines [2]; other concentrations as in Table 1, listed as Thidiazuron (300)",12 days
same,50% Bud Break to Harvest,Concord grape vines [2]; [6],38 days
same,50% Bud Break to Harvest,"Concord grape vines [2]; other concentrations as in Table 1, listed as thidiazuron",12 days
same,Initial to 50% Bud Break,Concord grape vines [2]; [7],21 days
same,Initial to 50% Bud Break,Concord grape vines [2]; [8],3 days
same,Initial to 50% Bud Break,Concord grape vines [2]; [6],3 days
same,25% Bud Break (DAT),Concord grape vines [2]; [7],23 DAT
same,25% Bud Break (DAT),Concord grape vines [2]; [6],9 DAT
same,50% Bud Break (DAT),Concord grape vines [2]; [7],37 DAT
same,50% Bud Break (DAT),Concord grape vines [2]; [8],11 DAT
same,50% Bud Break (DAT),Concord grape vines [2]; [6],11 DAT
same,Broken Buds per plant (Average Buds Broken per Spur),[3]; [9],0.1
same,Broken Buds per plant (Average Buds Broken per Spur),"[3]; thidiazuron 1,000 ppm",0.4
same,% Broken Buds,[3]; [9],80%
same,Total Shoot Length,[3]; [9],15.38
same,% Broken Buds,"[3]; thidiazuron 1,000 ppm",78.1%
same,Total Shoot Length,"[3]; thidiazuron 1,000 ppm",24.3
